Columns and labels:
human GSK3α = molecular target: T1, human GSK3α (Homo sapiens, UniProt P49840); assay: In vitro enzymatic activity assay, GSK3α; type: biochemical; conditions: 1.0 mM ATP, 1.0 μM peptide substrate, 120 min, 25° C, read-out: Enzyme GSK3α (IC50)
T1 construct: Full length human GSK3α or GSK3B expressed as N-terminal GST fusion proteins; GST (N); purchased Carna Biosciences (Japan); host or cells: baculovirus host
Procedure: (§1) Full length human GSK3α or GSK3B expressed as N-terminal GST fusion proteins in baculovirus host were purchased from Carna Biosciences (Japan). The kinase was pre-incubated with ATP (adenosine-5′-triphosphate) for 45 min, then incubated with tested compounds for another 45 min in assay buffer that contains 100 mM HEPES (N-2-hydroxyethylpiperazine-N′-2-ethanesulfonic acid), pH 7.5, 10 mM MgCl2, 1.0 mM DTT, and 0.015% Briji-35. […] Percent inhibition was plotted against compound concentration to generate 10-point dose response curve with 3-fold serial dilution starting from 10 μM. IC50 value was determined from the 4-parameter logistic curve fitting.

GSK3A = molecular target: T2, GSK3A (Homo sapiens, UniProt P49840); assay: NanoBRET cellular target engagement assay, Nanoluc-GSK3A in HEK293 cells; type: cell-based; conditions: NanoBRET GSK3α IC50, HEK293 cells, tracer K-8, 2 hours, 37° C
T2 construct: expressed in transfected cells
Procedure: (§2) In the assay, HEK293 cells stably expressing either Nanoluc-GSK3A or Nanoluc-GSK3B were maintained in culture media and seeded, using a multidrop dispenser, at a density of 5×10^3 cells per well in 384-well white plates with 100 ng/ml doxycycline (Sigma) overnight.
(§3) Compound was first diluted in DMSO to generate a 9-point serial dilution then diluted to 10× final concentration in Opti-MEM™ (Gibco). After overnight incubation, cell medium was aspirated from the seeded cells using a microplate automatic washer, then 27 μL of pre-warmed Opti-MEM™ with kinase tracer (K-8) and 3 μL of Opti-MEM™ diluted DMSO or compounds were added per well. Plates were protected from light, mixed in an orbital shaker for 3 min at RT and incubated at 37° C., 5% CO2 in a humidified incubator for 2 hours. After acclimation at RT for 15 min, 15 μL of 3× complete NanoBRET™ Nano-Glo Substrate/Inhibitor (Promega) was added per well. Plates were mixed in an orbital shaker for 3 min at RT and incubated for an additional 30 min. Donor emission at 460 nm and acceptor emission at 647 nm were measured in EnVision multilabel plate reader (Perkin Elmer).

GSK3B [1] = molecular target: T3, GSK3B (Homo sapiens, UniProt P49841); assay: NanoBRET cellular target engagement assay, Nanoluc-GSK3B in HEK293 cells; type: cell-based; parameters: expressed in transfected cells; conditions: NanoBRET GSK3β IC50, HEK293 cells, tracer K-8, 2 hours, 37° C
Procedure: as §2, §3

GSK3B [2] = molecular target: T3, GSK3B; assay: In vitro enzymatic activity assay, GSK3β; type: biochemical; parameters: Full length human GSK3α or GSK3B expressed as N-terminal GST fusion proteins; GST (N); purchased Carna Biosciences (Japan); host or cells: baculovirus host; conditions: 1.0 mM ATP, 1.0 μM peptide substrate, 120 min, 25° C, read-out: Enzyme GSK3β (IC50)
Procedure: as §1

T2 sequence (P49840 whole entry): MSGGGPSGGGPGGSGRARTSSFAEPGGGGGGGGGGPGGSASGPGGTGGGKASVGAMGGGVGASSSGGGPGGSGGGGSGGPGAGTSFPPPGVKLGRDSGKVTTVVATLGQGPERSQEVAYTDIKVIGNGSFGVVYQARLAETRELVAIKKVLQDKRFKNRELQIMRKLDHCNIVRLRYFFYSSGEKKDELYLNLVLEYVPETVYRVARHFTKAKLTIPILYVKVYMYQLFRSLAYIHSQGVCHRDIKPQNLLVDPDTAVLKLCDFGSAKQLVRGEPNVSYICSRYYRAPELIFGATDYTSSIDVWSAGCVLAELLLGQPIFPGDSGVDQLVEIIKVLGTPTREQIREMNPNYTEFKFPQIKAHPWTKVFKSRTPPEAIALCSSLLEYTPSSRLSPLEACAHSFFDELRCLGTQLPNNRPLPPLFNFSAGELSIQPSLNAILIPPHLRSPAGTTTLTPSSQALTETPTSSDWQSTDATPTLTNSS
T1 sequence (P49840 whole entry, the tested form may be a part): as the sequence (P49840 whole entry) above
T3 sequence (P49841 whole entry): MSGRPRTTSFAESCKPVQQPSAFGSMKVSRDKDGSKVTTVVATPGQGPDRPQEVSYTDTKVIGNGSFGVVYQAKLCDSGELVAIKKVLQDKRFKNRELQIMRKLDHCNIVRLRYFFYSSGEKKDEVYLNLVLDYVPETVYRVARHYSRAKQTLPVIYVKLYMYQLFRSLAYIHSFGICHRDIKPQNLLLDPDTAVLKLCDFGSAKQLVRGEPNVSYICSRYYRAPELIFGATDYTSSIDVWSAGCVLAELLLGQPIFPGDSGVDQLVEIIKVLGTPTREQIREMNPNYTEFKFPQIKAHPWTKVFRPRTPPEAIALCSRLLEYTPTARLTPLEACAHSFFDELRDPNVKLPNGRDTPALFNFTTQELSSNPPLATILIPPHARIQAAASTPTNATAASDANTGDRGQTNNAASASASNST

With `[2H]C([2H])([2H])NC(C)c1cncc(NC(=O)c2c(N)ncn(-c3c(C)cc(C(F)(F)F)cc3Cl)c2=O)c1` (single isomer, unassigned) [Example 16, (R)-4-amino-1-((S)-2-chloro-6-methyl-4-(trifluoromethyl)phenyl)-N-(5-(1-((methyl-d3)amino)ethyl)pyridin-3-yl)-6-oxo-1,6-dihydropyrimidine-5-carboxamide or (S)-4-amino-1-((S)-2-chloro-6-methyl-4-(trifluoromethyl)phenyl)-N-(5-(1-((methyl-d3)amino)ethyl)pyridin-3-yl)-6-oxo-1,6-dihydropyrimidine-5-carboxamide] the IC50 (human GSK3α) was 4.1 nM, the IC50 (GSK3A) was 1.9 nM and the IC50 (GSK3B [1]) was 132 nM. It also gave an IC50 (GSK3B [2]) of 255 nM.

`CNC(C)c1cncc(NC(=O)c2c(N)ncn(-c3c(Cl)cc(OC)cc3Cl)c2=O)c1` (single isomer, unassigned) [Example 18, (S)-4-amino-1-(2,6-dichloro-4-methoxyphenyl)-N-(5-(1-(methylamino)ethyl)pyridin-3-yl)-6-oxo-1,6-dihydropyrimidine-5-carboxamide or (R)-4-amino-1-(2,6-dichloro-4-methoxyphenyl)-N-(5-(1-(methylamino)ethyl)pyridin-3-yl)-6-oxo-1,6-dihydropyrimidine-5-carboxamide] was tested, and the IC50 (human GSK3α) was 11.9 nM, the IC50 (GSK3A) was 7.1 nM and the IC50 (GSK3B [1]) was 429 nM. The IC50 (GSK3B [2]) was 622 nM.

`CNC(C)c1cncc(NC(=O)c2c(N)ncn(-c3c(Cl)cc(OC)cc3Cl)c2=O)c1` (single isomer, unassigned) [Example 19, (R)-4-amino-1-(2,6-dichloro-4-methoxyphenyl)-N-(5-(1-(methylamino)ethyl)pyridin-3-yl)-6-oxo-1,6-dihydropyrimidine-5-carboxamide or (S)-4-amino-1-(2,6-dichloro-4-methoxyphenyl)-N-(5-(1-(methylamino)ethyl)pyridin-3-yl)-6-oxo-1,6-dihydropyrimidine-5-carboxamide] was tested, and the IC50 (human GSK3α) was 3.2 nM, the IC50 (GSK3A) was 3.5 nM and the IC50 (GSK3B [1]) was 180 nM. For the same molecule, the IC50 (GSK3B [2]) was 232 nM.

With `CCOc1cc(Cl)c(-n2cnc(N)c(C(=O)Nc3cncc(C(C)NC)c3)c2=O)c(Cl)c1` (single isomer, unassigned) [Example 24, (R)-4-amino-1-(2,6-dichloro-4-ethoxyphenyl)-N-(5-(1-(methylamino)ethyl)pyridin-3-yl)-6-oxo-1,6-dihydropyrimidine-5-carboxamide or (S)-4-amino-1-(2,6-dichloro-4-ethoxyphenyl)-N-(5-(1-(methylamino)ethyl)pyridin-3-yl)-6-oxo-1,6-dihydropyrimidine-5-carboxamide] the IC50 (human GSK3α) was 4.1 nM, the IC50 (GSK3A) was 2.8 nM and the IC50 (GSK3B [1]) was 147 nM. It also gave an IC50 (GSK3B [2]) of 298 nM.

For `COCc1cc(C)c(-n2cnc(N)c(C(=O)Nc3cncc4c3CCC4(C)N)c2=O)c(C)c1` (single isomer, unassigned) [Example 27, (R)-4-amino-N-(7-amino-7-methyl-6,7-dihydro-5H-cyclopenta[c]pyridin-4-yl)-1-(4-(methoxymethyl)-2,6-dimethylphenyl)-6-oxo-1,6-dihydropyrimidine-5-carboxamide or (S)-4-amino-N-(7-amino-7-methyl-6,7-dihydro-5H-cyclopenta[c]pyridin-4-yl)-1-(4-(methoxymethyl)-2,6-dimethylphenyl)-6-oxo-1,6-dihydropyrimidine-5-carboxamide], the IC50 (human GSK3α) was 2.4 nM, the IC50 (GSK3A) was 1.7 nM and the IC50 (GSK3B [1]) was 42.5 nM. It also gave an IC50 (GSK3B [2]) of 54.2 nM.

With `COC[C@](C)(N)c1cncc(NC(=O)c2c(N)ncn(-c3c(Cl)cc(OC)cc3Cl)c2=O)c1` (single isomer, unassigned) [Example 31, (R)-4-amino-N-(5-(2-amino-1-methoxypropan-2-yl)pyridin-3-yl)-1-(2,6-dichloro-4-methoxyphenyl)-6-oxo-1,6-dihydropyrimidine-5-carboxamide or (S)-4-amino-N-(5-(2-amino-1-methoxypropan-2-yl)pyridin-3-yl)-1-(2,6-dichloro-4-methoxyphenyl)-6-oxo-1,6-dihydropyrimidine-5-carboxamide] the IC50 (human GSK3α) was 6.9 nM, the IC50 (GSK3A) was 5 nM and the IC50 (GSK3B [1]) was 418 nM. The IC50 (GSK3B [2]) was 405 nM.

`COc1cc(Cl)c(-n2cnc(N)c(C(=O)Nc3cncc([C@@H]4NC[C@H]5CCC[C@H]54)c3)c2=O)c(Cl)c1` (single isomer, unassigned) [Example 32, 4-amino-1-(2,6-dichloro-4-methoxyphenyl)-N-(5-((1R,3aS,6aR)-octahydrocyclopenta[c]pyrrol-1-yl)pyridin-3-yl)-6-oxo-1,6-dihydropyrimidine-5-carboxamide or 4-amino-1-(2,6-dichloro-4-methoxyphenyl)-N-(5-((1S,3aR,6aS)-octahydrocyclopenta[c]pyrrol-1-yl)pyridin-3-yl)-6-oxo-1,6-dihydropyrimidine-5-carboxamide] showed an IC50 (human GSK3α) of 6.3 nM, an IC50 (GSK3A) of 2.6 nM and an IC50 (GSK3B [1]) of 158 nM. For the same molecule, the IC50 (GSK3B [2]) was 269 nM.

`CCC(N)c1cncc(NC(=O)c2c(N)ncn(-c3c(C)cc(COC)cc3C)c2=O)c1` (single isomer, unassigned) [Example 35, (R)-4-amino-N-(5-(1-aminopropyl)pyridin-3-yl)-1-(4-(methoxymethyl)-2,6-dimethylphenyl)-6-oxo-1,6-dihydropyrimidine-5-carboxamide or (S)-4-amino-N-(5-(1-aminopropyl)pyridin-3-yl)-1-(4-(methoxymethyl)-2,6-dimethylphenyl)-6-oxo-1,6-dihydropyrimidine-5-carboxamide] was tested, and the IC50 (human GSK3α) was 14.7 nM, the IC50 (GSK3A) was 6.2 nM and the IC50 (GSK3B [1]) was 412 nM. For the same molecule, the IC50 (GSK3B [2]) was 693 nM.

Work on `Cc1cc(C#N)cc(Cl)c1-n1cnc(N)c(C(=O)Nc2cccc([C@@H]3CCCCN3)c2)c1=O` (single isomer, unassigned) [Example 41, (S)-4-amino-1-((S)-2-chloro-4-cyano-6-methylphenyl)-6-oxo-N-(3-(piperidin-2-yl)phenyl)-1,6-dihydropyrimidine-5-carboxamide or (R)-4-amino-1-((S)-2-chloro-4-cyano-6-methylphenyl)-6-oxo-N-(3-(piperidin-2-yl)phenyl)-1,6-dihydropyrimidine-5-carboxamide] yielded an IC50 (human GSK3α) of 12.1 nM, an IC50 (GSK3A) of 5.9 nM and an IC50 (GSK3B [1]) of 386 nM. For the same molecule, the IC50 (GSK3B [2]) was 605 nM.

In the case of `C[C@H](N)c1cncc(NC(=O)c2c(N)ncn(-c3c(Cl)cc(C#N)cc3Cl)c2=O)c1` (single isomer, unassigned) [Example 43, (S)-4-amino-N-(5-(1-aminoethyl)pyridin-3-yl)-1-(2,6-dichloro-4-cyanophenyl)-6-oxo-1,6-dihydropyrimidine-5-carboxamide or (R)-4-amino-N-(5-(1-aminoethyl)pyridin-3-yl)-1-(2,6-dichloro-4-cyanophenyl)-6-oxo-1,6-dihydropyrimidine-5-carboxamide], the IC50 (human GSK3α) is reported as 4.9 nM, the IC50 (GSK3A) is reported as 5.4 nM and the IC50 (GSK3B [1]) is reported as 285 nM. For the same molecule, the IC50 (GSK3B [2]) was 283 nM.

In the case of `COC[C@@H](N)c1cncc(NC(=O)c2c(N)ncn(-c3c(Cl)cc(C#N)cc3Cl)c2=O)c1` (single isomer, unassigned) [Example 44, (S)-4-amino-N-(5-(1-amino-2-methoxyethyl)pyridin-3-yl)-1-(2,6-dichloro-4-cyanophenyl)-6-oxo-1,6-dihydropyrimidine-5-carboxamide or (R)-4-amino-N-(5-(1-amino-2-methoxyethyl)pyridin-3-yl)-1-(2,6-dichloro-4-cyanophenyl)-6-oxo-1,6-dihydropyrimidine-5-carboxamide], the IC50 (human GSK3α) is reported as 4.7 nM, the IC50 (GSK3A) is reported as 7.6 nM and the IC50 (GSK3B [1]) is reported as 518 nM. It also gave an IC50 (GSK3B [2]) of 382 nM.

Work on `COC[C@H](N)c1cncc(NC(=O)c2c(N)ncn(-c3c(Cl)cc(OC(F)F)cc3Cl)c2=O)c1` (single isomer, unassigned) [Example 47, (R)-4-amino-N-(5-(1-amino-2-methoxyethyl)pyridin-3-yl)-1-(2,6-dichloro-4-(difluoromethoxy)phenyl)-6-oxo-1,6-dihydropyrimidine-5-carboxamide or (S)-4-amino-N-(5-(1-amino-2-methoxyethyl)pyridin-3-yl)-1-(2,6-dichloro-4-(difluoromethoxy)phenyl)-6-oxo-1,6-dihydropyrimidine-5-carboxamide] yielded an IC50 (human GSK3α) of 3.2 nM, an IC50 (GSK3A) of 2.9 nM and an IC50 (GSK3B [1]) of 174 nM. For the same molecule, the IC50 (GSK3B [2]) was 227 nM.
